According to ChEMBL document CHEMBL1122865 (J Med Chem, 1985):

How the values were obtained:
[1] = target: D(2) dopamine receptor (Bos taurus) (UniProt P20288); assay: Ability to inhibit specific [3H]spiroperidol binding to bovine anterior pituitary homogenate, at 10 uM
[2] = target: D(1A) dopamine receptor (Rattus norvegicus) (UniProt P18901); assay: Tested for its ability to stimulate rat caudate adenylate cyclase (Dopamine receptor D1) at 10 uM
Oryctolagus cuniculus [3] = species: Oryctolagus cuniculus; assay: Compound was tested for DA agonistic activity in the isolated perfused rabbit ear artery.; type: functional; conditions: read-out: ED50 (the source's name)
[4] = target: D(2) dopamine receptor (Bos taurus) (UniProt P20288); assay: Compound was tested for its ability to inhibit specific [3H]spiroperidol binding to bovine anterior pituitary homogenate, at 10 uM
[5] = target: D(1A) dopamine receptor (Rattus norvegicus) (UniProt P18901); assay: Tested for its ability to inhibit rat caudate adenylate cyclase (Dopamine receptor D1) at 10 uM
Oryctolagus cuniculus [6] = species: Oryctolagus cuniculus; assay: The compound was tested for DA agonistic activity in the isolated perfused rabbit ear artery.; type: functional; conditions: read-out: ED50 (the source's name)

Sequence of D(1A) dopamine receptor (Rattus norvegicus) (P18901 whole entry, the tested form may be a part): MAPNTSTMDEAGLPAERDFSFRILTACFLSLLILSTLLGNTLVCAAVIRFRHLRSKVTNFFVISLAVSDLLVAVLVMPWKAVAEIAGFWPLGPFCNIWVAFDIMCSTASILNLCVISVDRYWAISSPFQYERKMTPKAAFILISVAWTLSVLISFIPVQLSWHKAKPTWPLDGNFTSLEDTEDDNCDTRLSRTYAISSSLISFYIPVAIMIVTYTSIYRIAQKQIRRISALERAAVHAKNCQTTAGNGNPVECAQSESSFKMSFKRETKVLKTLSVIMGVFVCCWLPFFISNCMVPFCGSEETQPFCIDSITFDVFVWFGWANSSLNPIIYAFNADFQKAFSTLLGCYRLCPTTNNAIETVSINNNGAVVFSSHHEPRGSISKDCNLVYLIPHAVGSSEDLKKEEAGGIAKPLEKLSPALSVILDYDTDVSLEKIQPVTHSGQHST
Sequence of D(2) dopamine receptor (Bos taurus) (P20288 whole entry): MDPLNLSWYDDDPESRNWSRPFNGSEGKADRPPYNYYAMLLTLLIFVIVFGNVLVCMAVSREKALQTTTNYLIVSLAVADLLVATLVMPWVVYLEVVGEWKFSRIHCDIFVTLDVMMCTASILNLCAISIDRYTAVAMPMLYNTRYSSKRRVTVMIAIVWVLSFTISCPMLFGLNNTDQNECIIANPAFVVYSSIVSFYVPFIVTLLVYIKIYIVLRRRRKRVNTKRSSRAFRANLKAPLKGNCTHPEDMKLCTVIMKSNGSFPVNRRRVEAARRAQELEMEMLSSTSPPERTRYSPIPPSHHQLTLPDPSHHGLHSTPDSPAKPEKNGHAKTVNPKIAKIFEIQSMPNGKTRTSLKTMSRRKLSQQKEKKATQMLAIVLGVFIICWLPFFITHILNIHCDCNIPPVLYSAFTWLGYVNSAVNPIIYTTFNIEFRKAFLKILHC

## NCCc1ccc(O)c2nc(O)ccc12
[1]
  Displacement: 56%
[2]
  Stimulation: 27%
Oryctolagus cuniculus [3]
  EC50: 140 nM
[4]
  Kb: 4040 nM
[5]
  inhibition: 1%

## CCCN(CCC)CCc1ccc(O)c2c1CCC(=O)N2
[1]
  Displacement: 40%
[2]
  Stimulation: 1%
Oryctolagus cuniculus [3]
  EC50: 252 nM
[4]
  Kb: 15100 nM
[5]
  inhibition: 0%

## COc1ccc(CCN)c2ccc(O)nc12
[1]
  Displacement: 9%
[2]
  Stimulation: 3%
[5]
  inhibition: 1%

## Oc1ccc(CCNCCc2ccc(O)c3nc(O)ccc23)cc1
[1]
  Displacement: 42%
[2]
  Stimulation: 2%
Oryctolagus cuniculus [3]
  EC50: 136 nM
[5]
  inhibition: 6%

## CCCN(CCC)CCc1cccc2nc(O)ccc12
[1]
  Displacement: 30%
[2]
  Stimulation: 4%
[5]
  inhibition: 0%

## NC1CCc2cc(O)c(O)cc2C1 (stereo not given)
Oryctolagus cuniculus [6]
  EC50: 4.6 nM

## CCCN(CCc1ccc(O)cc1)CCc1ccc(O)c2nc(O)ccc12
[1]
  Displacement: 78%
[2]
  Stimulation: 0%
Oryctolagus cuniculus [3]
  EC50: 12.3 nM
[4]
  Kb: 770 nM
[5]
  inhibition: 0%

## CCCN(CCC)CCc1ccc(OC)c2nc(O)ccc12
[1]
  Displacement: 6%
[2]
  Stimulation: 3%
[5]
  inhibition: 0%

## COc1ccc(CCNCCc2ccccc2)c2ccc(O)nc12
[1]
  Displacement: 9%
[2]
  Stimulation: 0%
[5]
  inhibition: 0%

## CCCN(CCC)CCc1ccc(O)c2[nH]c(=O)ccc12
[1]
  Displacement: 19%
[2]
  Stimulation: 1%
Oryctolagus cuniculus [3]
  EC50: 493 nM
[5]
  inhibition: 0%

## NCCc1ccc(O)c(O)c1 [DOPAMINE]
Oryctolagus cuniculus [6]
  EC50: 37 nM

## NCCc1cccc2nc(O)ccc12
[1]
  Displacement: 21%
[2]
  Stimulation: 1%
[5]
  inhibition: 5%

## CCCN(CCc1ccccc1)CCc1ccc(O)c2nc(O)ccc12
[1]
  Displacement: 72%
[2]
  Stimulation: 0%
Oryctolagus cuniculus [3]
  EC50: 128 nM
[4]
  Kb: 2020 nM
[5]
  inhibition: 6%
